Each structure is given as a SMILES string. Where a name gives a salt, the structure may show the parent alone. Read-outs that look alike come from different tables or passages of the source.

Our source for the melting point and Ki values is patent US20140296212A1, “SUBSTITUTED PHENOXYPROPYLCYCLOAMINE DERIVATIVES AS HISTAMINE-3 (H3) RECEPTOR LIGANDS” (CEPHALON, INC., priority 2009, published 2014).

For one data set, the target named is T1, human H3 receptor (Homo sapiens, UniProt Q9Y5N1).
T1 construct: expressed in transfected cells
T1 sequence (Q9Y5N1 whole entry): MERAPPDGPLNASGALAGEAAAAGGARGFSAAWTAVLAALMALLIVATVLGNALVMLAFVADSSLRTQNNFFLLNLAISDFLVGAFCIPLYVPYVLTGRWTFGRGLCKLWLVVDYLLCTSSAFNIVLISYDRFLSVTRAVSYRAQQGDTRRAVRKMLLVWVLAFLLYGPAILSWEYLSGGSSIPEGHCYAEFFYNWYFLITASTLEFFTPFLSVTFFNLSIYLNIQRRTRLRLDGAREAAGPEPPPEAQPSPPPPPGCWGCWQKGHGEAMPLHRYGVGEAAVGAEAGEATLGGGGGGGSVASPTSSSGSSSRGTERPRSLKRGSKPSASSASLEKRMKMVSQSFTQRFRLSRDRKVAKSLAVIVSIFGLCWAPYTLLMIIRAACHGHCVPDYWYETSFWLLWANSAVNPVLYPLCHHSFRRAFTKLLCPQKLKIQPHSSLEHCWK
Put plainly: Human H3 radioligand binding ([3H]-N-alpha-methylhistamine, SPA). Conditions: membranes of CHO cells expressing human H3. On the procedure: Cell pellets were resuspended in 5 mM Tris-HCl, pH 7.5 with 5 nM EDTA and a cocktail of protease inhibitors (Complete Protease Inhibitor Tablets, Roche Diagnostics). Cells were disrupted using a polytron cell homogenizer and the suspension was centrifuged at 1000×g for 10 minutes at 4° C. The pellet was discarded and the supernatant centrifuged at 40,000×g for 30 min at 4° C. This membrane pellet was washed in membrane buffer containing 50 mM Tris-HCl, pH 7.5 with 0.6 mM EDTA, 5 mM MgCl2 and protease inhibitors, recentrifuged as above and the final pellet resuspended in membrane buffer plus 250 mM sucrose and frozen at −80° C.
(§1) Membranes were resuspended in 50 mM Tris HCl (pH 7.4), 5 mM MgCl2, 0.1% BSA. The membrane suspensions (10 μg protein per well) were incubated in a 96 well microtiter plate with [^3H]-N-alpha-methylhistamine (approximately 1 nM final concentration), test compounds at various concentrations (0.01 nM-30 μM) and scintillation proximity beads (Perkin Elmer, FlashBlueGPCR Scintillating Beads) in a final volume of 80 μl for 4 hours at room temperature, protected from light. Non-specific binding was determined in the presence of 10 μM clobenpropit. Radioligand bound to receptor, and therefore in proximity to the scintillation beads, was measured using a MicroBeta scintillation counter.

Data set [1] concerns the target T2, rat histamine H3 receptor (Rattus norvegicus, UniProt Q9QYN8).
T2 construct: encoding the entire 445-amino-acid rat histamine H3 receptor; expressed in transfected cells
Put plainly: Rat H3 radioligand binding ([3H]-N-alpha-methylhistamine, SPA).
Source text: The rat H3 receptor cDNA was PCR amplified from reverse-transcribed RNA pooled from rat thalamus, hypothalamus, striatum and prefrontal cortex with a sequence corresponding to by #338-1672 of Genbank file #NM_053506, encoding the entire 445-amino-acid rat histamine H3 receptor. This was engineered into the pIRES-neo3 mammalian expression vector, which was stably transfected into the CHO-A3 cell line (Euroscreen, Belgium), followed by clonal selection by limiting dilution. Cells were harvested and cell pellets were frozen (−80° C.). Cell pellets were resuspended in 5 mM Tris-HCl, pH 7.5 with 5 nM EDTA and a cocktail of protease inhibitors (Complete Protease Inhibitor Tablets, Roche Diagnostics). Cells were disrupted using a polytron cell homogenizer and the suspension was centrifuged at 1000×g for 10 minutes at 4° C. The pellet was discarded and the supernatant centrifuged at 40,000×g for 30 min at 4° C. This membrane pellet was washed in membrane buffer containing 50 mM Tris-HCl, pH 7.5 with 0.6 mM EDTA, 5 mM MgCl2 and protease inhibitors, recentrifuged as above and the final pellet resuspended in membrane buffer plus 250 mM sucrose and frozen at −80° C.
as §1

The mark [2] stands for this setting: membranes of CHO-A3 cells expressing rat H3, [3H]-N-alpha-methylhistamine, read-out: Rat H3 Ki.

T2 sequence (Q9QYN8 whole entry): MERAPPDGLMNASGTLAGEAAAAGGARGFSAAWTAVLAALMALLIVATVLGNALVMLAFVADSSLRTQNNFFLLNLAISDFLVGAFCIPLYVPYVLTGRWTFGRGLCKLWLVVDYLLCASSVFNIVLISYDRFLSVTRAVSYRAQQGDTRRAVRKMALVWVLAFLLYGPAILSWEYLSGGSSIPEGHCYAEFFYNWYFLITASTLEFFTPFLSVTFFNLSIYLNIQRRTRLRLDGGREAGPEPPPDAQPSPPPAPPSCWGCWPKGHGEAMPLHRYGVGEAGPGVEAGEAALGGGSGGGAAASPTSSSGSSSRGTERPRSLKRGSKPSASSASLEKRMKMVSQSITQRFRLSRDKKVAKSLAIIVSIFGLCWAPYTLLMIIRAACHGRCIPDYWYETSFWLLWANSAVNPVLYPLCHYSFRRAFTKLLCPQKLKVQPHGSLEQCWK

Turning to `CC(C)N1CCC(Oc2ccc(C(=O)CN3CCOCC3)cc2)CC1` (as salt: hydrochloride) [Example 45, 1-[4-(1-Isopropyl-piperidin-4-yloxy)-phenyl]-2-morpholin-4-yl-ethanone], the melting point was 296 to 298 °C. Regarding `CC(C(=O)c1ccc(OCCCN2CCC[C@@H]2C)cc1)N1CCCCC1` (stereo partly drawn) [Example 20, 1-{4-[3-((S)-2-Methyl-pyrrolidin-1-yl)-propoxy]-phenyl}-2-piperidin-1-yl-propan-1-one], the melting point was above 230 °C. On human H3 receptor, this molecule gave an inhibitory constant (Ki) of 0.1 to 100 nM. Regarding `Cc1cc(C(=O)CN2CCC(F)(F)CC2)ccc1OCCCN1CCC[C@H]1C` [Example 136, 2-(4,4-Difluoro-piperidin-1-yl)-1-{3-methyl-4-[3-((R)-2-methyl-pyrrolidin-1-yl)-propoxy]-phenyl}-ethanone], the values for the Ki (at human H3 receptor; in data set [1] (setting [2])) were 0.1 to 100 nM and 101 to 500 nM, respectively. Take `C[C@@H]1CCCN1CCCOc1ccc(C(=O)CN2CCC(C(F)(F)F)CC2)cc1` [Example 47, 1-{4-[3-((R)-2-Methyl-pyrrolidin-1-yl)-propoxy]-phenyl}-2-(4-trifluoromethyl-piperidin-1-yl)-ethanone]: the inhibition constant Ki (at human H3 receptor; in data set [1] (setting [2])) was 0.1 to 100 nM throughout. Regarding `C[C@@H]1CCCN1CCCOc1ccc(/C(CN2CCOC(c3ccccc3)C2)=N/OC(C)(C)C)cc1` (some centres unmarked) [Example 168], the inhibition constant (Ki) on human H3 receptor was in the range of 0.1 to 100 nM; in data set [1] (setting [2]), 101 to 500 nM. For `C[C@@H]1CCCN1CCCOc1ccc(C(=O)CN2CCC(C#N)CC2)cc1` [Example 43, 1-(2-{4-[3-((R)-2-Methyl-pyrrolidin-1-yl)-propoxy]-phenyl}-2-oxo-ethyl)-piperidine-4-carbonitrile] the same measures were 0.1 to 100 nM and 0.1 to 100 nM. For `C[C@@H]1CCCN1CCCOc1ccc(C(=O)CN2CCN(C(=O)c3ccccc3)CC2)c(F)c1` [Example 103, 2-(4-Benzoyl-piperazin-1-yl)-1-{2-fluoro-4-[3-((R)-2-methyl-pyrrolidin-1-yl)-propoxy]-phenyl}-ethanone], the inhibitory constant (Ki) (on human H3 receptor; in data set [1] (setting [2])) was 0.1 to 100 nM each time. For the molecule `C[C@@H]1CN(CC(=O)c2ccc(OCCCN3CCC[C@H]3C)cc2)C[C@H](C)O1` [Example 38, 2-((2R,6S)-2,6-Dimethyl-morpholin-4-yl)-1-{4-[3-((R)-2-methyl-pyrrolidin-1-yl)-propoxy]-phenyl}-ethanone], the inhibitory constant (Ki) (at human H3 receptor; in data set [1] (setting [2])) was 0.1 to 100 nM each time. With `C[C@@H]1CCCN1CCCOc1ccc(C(=O)CN2CCCC2=O)cc1` [Example 21, 1-(2-{4-[3-((R)-2-Methyl-pyrrolidin-1-yl)-propoxy]-phenyl}-2-oxo-ethyl)-pyrrolidin-2-one], the results for the inhibition constant (Ki) (on human H3 receptor; in data set [1] (setting [2])) were 0.1 to 100 nM and 101 to 500 nM, respectively.

On to `C[C@@H]1CCCN1CCCOc1ccc(C(=O)CN2CCN(C(=O)c3cccc4ccccc34)CC2)cc1` [Example 133, 1-{4-[3-((R)-2-Methyl-pyrrolidin-1-yl)-propoxy]-phenyl}-2-[4-(naphthalene-1-carbonyl)-piperazin-1-yl]-ethanone], for which the inhibition constant (Ki) (on human H3 receptor; in data set [1] (setting [2])) was 0.1 to 100 nM in each case. Molecule `CC(C)OC(=O)N1CCN(CC(=O)c2ccc(OCCCN3CCC[C@H]3C)cc2)CC1` [Example 158, 4-(2-{4-[3-((R)-2-Methyl-pyrrolidin-1-yl)-propoxy]-phenyl}-2-oxo-ethyl)-piperazine-1-carboxylic acid isopropyl ester] came in with a melting point of 222 to 224 °C. Same read-out and setting: the same measure for `C[C@@H]1CCCN1CCCOc1ccc(C(=O)CN2CCN(C(=O)c3ccccc3)CC2)c(F)c1` (as salt: fumaric acid salt) [Example 103, 2-(4-Benzoyl-piperazin-1-yl)-1-{2-fluoro-4-[3-((R)-2-methyl-pyrrolidin-1-yl)-propoxy]-phenyl}-ethanone]: 98 to 101 °C. The molecule `C[C@@H]1CCCN1CCCOc1ccc(C(=O)C(C)(C)N2CCOCC2)cc1` (as salt: fumaric acid salt) [Example 54] returned a melting point of 45 to 50 °C. Consider `Cc1cc(OCCCN2CCC[C@H]2C)ccc1C(=O)CN1CCOCC1` [Example 74, 1-{2-Methyl-4-[3-((R)-2-methyl-pyrrolidin-1-yl)-propoxy]-phenyl}-2-morpholin-4-yl-ethanone], for which the inhibition constant (Ki) was 0.1 to 100 nM on human H3 receptor and 101 to 500 nM in data set [1] (setting [2]). With `COC(=O)N1CCN(CC(=O)c2ccc(OCCCN3CCC[C@H]3C)c(C)c2)CC1` [Example 137, 4-(2-{3-Methyl-4-[3-((R)-2-methyl-pyrrolidin-1-yl)-propoxy]-phenyl}-2-oxo-ethyl)-piperazine-1-carboxylic acid methyl ester], the inhibitory constant (Ki) (at human H3 receptor; in data set [1] (setting [2])) was 0.1 to 100 nM each time. For the molecule `COc1cc(C(=O)CN2CCN(C(=O)c3ccccc3)CC2)ccc1OCCCN1CCC[C@H]1C` [Example 112, 2-(4-Benzoyl-piperazin-1-yl)-1-{3-methoxy-4-[3-((R)-2-methyl-pyrrolidin-1-yl)-propoxy]-phenyl}-ethanone], the Ki was 101 to 500 nM at human H3 receptor and above 1000 nM in data set [1] (setting [2]). In the case of `O=C(CN1CCOCC1)c1ccc(OCCCN2CCCC2)cc1` [Example 15, 2-Morpholin-4-yl-1-[4-(3-pyrrolidin-1-yl-propoxy)-phenyl]-ethanone], the figures for the inhibition constant Ki (on human H3 receptor; in data set [1] (setting [2])) were 101 to 500 nM and 501 to 1000 nM, respectively.

For the molecule `CC(C)COC(=O)N1CCN(CC(=O)c2ccc(OCCCN3CCC[C@H]3C)cc2)CC1` [Example 131, 4-(2-{4-[3-((R)-2-Methyl-pyrrolidin-1-yl)-propoxy]-phenyl}-2-oxo-ethyl)-piperazine-1-carboxylic acid isobutyl ester], the inhibition constant Ki (on human H3 receptor; in data set [1] (setting [2])) was 0.1 to 100 nM each time.

Regarding `C[C@@H]1CCCN1CCCOc1ccc(C(=O)CN2CCN(C(=O)c3ccccc3)CC2)cc1` [Example 68, 2-(4-Benzoyl-piperazin-1-yl)-1-{4-[3-((R)-2-methyl-pyrrolidin-1-yl)-propoxy]-phenyl}-ethanone], the Ki (at human H3 receptor; in data set [1] (setting [2])) was 0.1 to 100 nM throughout. On to `C[C@@H]1CCCN1CCCOc1ccc(C(=O)CN2CCC(F)(F)C2)cc1` [Example 60, 2-(3,3-Difluoro-pyrrolidin-1-yl)-1-{4-[3-((R)-2-methyl-pyrrolidin-1-yl)-propoxy]-phenyl}-ethanone], for which the Ki (on human H3 receptor; in data set [1] (setting [2])) was 0.1 to 100 nM throughout. In the case of `CC1CCCN1CCCOc1ccc(C(=O)C(C)N2CCOCC2)cc1` (centres unmarked) [Example 27, 1-{4-[3-(2-Methyl-pyrrolidin-1-yl)-propoxy]-phenyl}-2-morpholin-4-yl-propan-1-one], the Ki (at human H3 receptor; in data set [1]) was 0.1 to 100 nM each time. Turning to `C[C@@H]1CCCN1CCCOc1ccc(C(=O)CN2CCCC(F)(F)C2)cc1` [Example 52, 2-(3,3-Difluoro-piperidin-1-yl)-1-{4-[3-((R)-2-methyl-pyrrolidin-1-yl)-propoxy]-phenyl}-ethanone], the inhibition constant Ki (on human H3 receptor; in data set [1] (setting [2])) was 0.1 to 100 nM in each case.

For the molecule `C[C@@H]1CCCN1CCCOc1ccc(C(=O)CN2Cc3ccccc3C2)cc1` [Example 73, 2-(1,3-Dihydro-isoindol-2-yl)-1-{4-[3-((R)-2-methyl-pyrrolidin-1-yl)-propoxy]-phenyl}-ethanone], the inhibitory constant (Ki) (on human H3 receptor; in data set [1] (setting [2])) was 0.1 to 100 nM each time. Turning to `Cc1nc2ccccc2n1CC(=O)c1ccc(OCCCN2CCC[C@H]2C)cc1` [Example 142, 2-(2-Methyl-benzoimidazol-1-yl)-1-{4-[3-((R)-2-methyl-pyrrolidin-1-yl)-propoxy]-phenyl}-ethanone], the inhibition constant (Ki) (at human H3 receptor; in data set [1] (setting [2])) was 0.1 to 100 nM throughout.
